{"source": "patent US6602860B1", "about": "“Crystalline mixtures of partial methyl ethers of beta-cyclodextrin and related compounds” (priority 1999, dated 2003)", "experiment": "Solubilizing potency: solubility of hydrocortisone in aqueous solutions of cyclodextrin derivatives", "assay_type": "physicochemical", "conditions": "5% (w/w) aqueous solutions of the derivative; P264 and P258 crystalline components used without heat drying"}
{"substance": "Heptakisdimethylbetacyclodextrin", "values": [{"measurement": "Solubility Of Hydrocortisone", "value": 8800, "unit": "µg/mL"}]}
